Consider two compounds from patent US9675595B2, “Synergistic combinations of PI3K- and MEK-inhibitors” (Novartis AG, priority 2011, dated 2017).

What all share (experiment): Cell viability (CellTiterGlo, 72 h), Example 1
Common to all, as to format: cell-based

One assay relates to C2BBe1. To be noted: Homo sapiens, single agent. The source says:
(§1) The colorectal cancer cell lines SW1417, COLO 205, LS411N, HT-29, RKO, OUMS-23, SW620, LoVo, SW480, SW837, COLO-678, LS123-NCI—H747, HCT-15, HCT116, DLD-1, T84, SW948, LS180, GP2d, HuTu 80, CW-2, SW48, NCI—H716, C2Bbe1, SNU—C1 and KM12 are obtained from the American Type Culture Collection (ATCC) and maintained in their respective culture medium as specified by the provider. These colorectal cancer cell lines have the following mutation status:
(§2) For assessment of combination effects, cells are seeded into 384-well plates at 500 cells/well and incubated overnight. The contents of the compound master plates are pre-diluted with 1:200 (1 μL compound solution to 200 μL cell […] culture medium containing 10% fetal clf serum) before transferring 5 μL of this pre-dilution to the cell plates containing 20 μL cell culture medium, to achieve the targeted final compound concentrations as well as a vehicle (DMSO) concentration of 0.09%.
(§3) Effects of single agents as well as their checkerboard combinations on cell viability are assessed after 72 hours of incubation at 37° C./5% CO2 by quantification of cellular ATP levels (CellTiterGlo, Promega) using 25 μL reagent/well and n=2 repliate plates per condition. The number/viability of cells at the time of compound addition was likewise assessed and used to estimate the population doubling time of the particular cell line. Single agent IC50s are calculated using standard four-parametric curve fitting (SLFit, model 205). Potential synergistic interactions between compound combinations are assessed using the Excess Inhibition 2D matrix according to the Loewe additivity model and are reported as Synergy Score. In addition, compound combinations are assessed by combination index analysis derived from isobologram graphs at 50% inhibition, and are reported as best combination index (CI), which corresponds to the lowest value on the isobologram. All synergy calculations are performed using CHALICE software (Lehár et al, Nat Biotechnol. (July 2009), 27(4): […]).

Another assay deals with COLO205. As to conditions: Homo sapiens, COLO 205, single agent.
Source text: as §1, §2, §3

The next assay has as its system DLD-1. To be noted: Homo sapiens, single agent.
Source text: as §1, §2, §3

Another assay concerns GP2d. As to conditions: single agent.
Source text: as §1, §2, §3

For a further assay, the system named is HCT-15. To be noted: Homo sapiens, single agent.
Source text: as §1, §2, §3

Another assay concerns HT-29. To be noted: Homo sapiens, HT-29, 72 h.
Source text: as §1, §2, §3

The test system of a further assay is HuTu 80. To be noted: Homo sapiens, HuTu80, single agent.
Source text: as §1, §2, §3

In another assay the test system is KM12. As to conditions: Homo sapiens, single agent.
Source text: as §1, §2, §3

The next assay deals with LS 180. To be noted: Homo sapiens, LS180, single agent.
Source text: as §1, §2, §3

Another assay deals with LS123. As to conditions: Homo sapiens, LS-123, single agent.
Source text: as §1, §2, §3

In the next assay the test system is LS411N. To be noted: Homo sapiens, LS-411N, single agent.
Source text: as §1, §2, §3

The next assay relates to LoVo. As to conditions: Homo sapiens, single agent.
Source text: as §1, §2, §3

The subject of the next assay is NCI-H716. As to conditions: Homo sapiens, single agent.
Source text: as §1, §2, §3

A further assay has as its system OUMS-23. As to conditions: single agent.
Source text: as §1, §2, §3

A further assay concerns SNU-C1. To be noted: Homo sapiens, single agent.
Source text: as §1, §2, §3

The test system of the next assay is SW480. As to conditions: Homo sapiens, single agent.
Source text: as §1, §2, §3

The subject of a further assay is SW48. To be noted: Homo sapiens, single agent.
Source text: as §1, §2, §3

A further assay concerns SW620. As to conditions: Homo sapiens, SW-620, single agent.
Source text: as §1, §2, §3

The test system of a further assay is SW837. As to conditions: Homo sapiens, single agent.
Source text: as §1, §2, §3

A further assay relates to T84. To be noted: Homo sapiens, duplicate data points and dose response display some scatter, single agent.
Source text: as §1, §2, §3

pIC50: −log10 of the molar value. Read-outs that look alike come from different tables or passages of the source.

Consider `Cc1nc(NC(=O)N2CCC[C@H]2C(N)=O)sc1-c1ccnc(C(C)(C)C(F)(F)F)c1` [COMPOUND A, (S)-pyrrolidine-1,2-dicarboxylic acid 2-amide 1-({4-methyl-5-[2-(2,2,2-trifluoro-1,1-dimethyl-ethyl)-pyridin-4-yl]-thiazol-2-yl}-amide)], for which the pIC50 in the assay with C2BBe1 (read-out: Cmpd. A IC50) was 5.04; with COLO205 (read-out: Cmpd. A IC50), under 4.97; in the assay on DLD-1 (read-out: Cmpd. A IC50) it was under 4.97; in the assay with GP2d (read-out: Cmpd. A IC50), 6.16; with HCT-15 (read-out: Cmpd. A IC50), 5.17; with HT-29 (HT-29*, repeat experiment performed at end of study, single agent, read-out: Cmpd. A IC50) it was 5.37. The pIC50 with HT-29 (HT-29, single agent, read-out: Cmpd. A IC50) is 5.28; in the assay on HuTu 80 (read-out: Cmpd. A IC50), 5.05; in the assay on KM12 (read-out: Cmpd. A IC50) it was under 4.97; with LS 180 (read-out: Cmpd. A IC50) it was 5.29; with LS123 (read-out: Cmpd. A IC50), 5.14; in the assay with LS411N (read-out: Cmpd. A IC50), 5.06. The pIC50 was 5.06 in the assay on LoVo (read-out: Cmpd. A IC50); under 4.97 in the assay on NCI-H716 (read-out: Cmpd. A IC50); under 4.97 in the assay on OUMS-23 (read-out: Cmpd. A IC50); 5.61 with SNU-C1 (read-out: Cmpd. A IC50); 5.03 in the assay on SW480 (read-out: Cmpd. A IC50); 5.85 in the assay with SW48 (read-out: Cmpd. A IC50). The pIC50 with SW620 (read-out: Cmpd. A IC50) was under 4.97; in the assay on SW837 (read-out: Cmpd. A IC50), 5.14; with T84 (read-out: Cmpd. A IC50), 5.38.
As for `Cn1cnc2c(F)c(Nc3ccc(Br)cc3F)c(C(=O)NOCCO)cc21` [COMPOUND B, 6-(4-bromo-2-fluorophenylamino)-7-fluoro-3-methyl-3H-benzoimidazole-5-carboxylic acid (2-hydroxyethoxy)-amide], the pIC50 in the assay with C2BBe1 (read-out: Cmpd. B IC50) was 5.80; with COLO205 (read-out: Cmpd. B IC50) it was 7.46; in the assay on DLD-1 (read-out: Cmpd. B IC50), under 5.57; in the assay with GP2d (read-out: Cmpd. B IC50), 6.12; in the assay with HCT-15 (read-out: Cmpd. B IC50), under 5.57; with HT-29 (HT-29*, repeat experiment performed at end of study, single agent, read-out: Cmpd. B IC50) it was 7.18. In addition, the pIC50 was 7.08 in the assay on HT-29 (HT-29, single agent, read-out: Cmpd. B IC50); under 5.57 in the assay with HuTu 80 (read-out: Cmpd. B IC50); 6.47 in the assay on KM12 (read-out: Cmpd. B IC50); 6.84 in the assay on LS 180 (read-out: Cmpd. B IC50); 5.64 in the assay with LS123 (read-out: Cmpd. B IC50); 7.26 in the assay on LS411N (read-out: Cmpd. B IC50). Besides, the pIC50 with LoVo (read-out: Cmpd. B IC50) is 6.83; in the assay on NCI-H716 (read-out: Cmpd. B IC50) it was under 5.57; with OUMS-23 (read-out: Cmpd. B IC50), under 5.57; in the assay on SNU-C1 (read-out: Cmpd. B IC50) it was 7.82; in the assay on SW480 (read-out: Cmpd. B IC50), 5.69; in the assay with SW48 (read-out: Cmpd. B IC50), 7.11. For the same compound, the pIC50 in the assay on SW620 (read-out: Cmpd. B IC50) was 7.57; with SW837 (read-out: Cmpd. B IC50) it was 6.25; in the assay on T84 (read-out: Cmpd. B IC50), 4.89.

In general, pIC50 refers to −log10 of the IC50, conventionally taken in molar units.
